Patent publication US20230096766A1, “AMINO ACID HAVING FUNCTIONAL GROUP CAPABLE OF INTERMOLECULAR HYDROGEN BONDING, PEPTIDE COMPOUND CONTAINING SAME AND METHOD FOR PRODUCTION THEREOF” (Chugai Seiyaku Kabushiki Kaisha, priority 2018, published 2023)
*1 amine or outer side, *2 acyl side, *3 side chain or, on linkers, in order; H or OH if unused. Where a SMILES comes first, the peptide text is derived from it. Bridges are numbered along the chain shown (N, C = ends). [ ]: non-standard residue; d: D form. The star is where a group is joined. NMePhe(3-Cl) = CN[C@@H](Cc1cccc(Cl)c1)C(=O)O; X12 = O=C([C@H](CCCC(O)C(F)(F)F)N[*:1])[*:2]; X6 = O=C([C@H](CCCCO)N[*:1])[*:2]; NMeF = CN[C@@H](Cc1ccccc1)C(=O)O; NMeGABA = CN(CCCC(=O)[*:2])[*:1]; NMeI = CC[C@H](C)[C@H](NC)C(=O)O; CH2CH(OH)CF3 = OC(C*)C(F)(F)F; NMeL = CN[C@@H](CC(C)C)C(=O)O; NMeV = CN[C@H](C(=O)O)C(C)C; NMeAbu = CC[C@H](NC)C(=O)O; NMeA = CN[C@@H](C)C(=O)O; Piperidide = C1CCN(*)CC1; dAbu = CC[C@@H](N)C(=O)O; NBuGly = CCCCNCC(=O)O; NPrGly = CCCNCC(=O)O; Sar = CNCC(=O)O; tBu = CC(C)(C)*

Experiment: in vitro
Conditions: human
[1] = Caco-2, Caco-2 (membrane permeability)

Row | SMILES | Papp (Caco-2, Caco-2 (cm/sec)) | Papp [1]
1 | CCCN1CC(=O)N(C)[C@@H](CC(C)C)C(=O)N[C@@H](CCCCO)C(=O)N(C)[C@@H](Cc2cccc(Cl)c2)C(=O)N(C)[C@@H](CC(C)C)C(=O)N[C@H](C(=O)N2CCCCC2)CC(=O)N[C@H](CC)C(=O)N(C)[C@@H](Cc2ccccc2)C(=O)N[C@@H](CC(C)C)C(=O)N(C)[C@@H](CC(C)C)C(=O)N[C@@H]([C@@H](C)O)C1=O [Compound B10] ([dAbu][NMeF]L[NMeL]T[NPrGly][NMeL][X6][NMePhe(3-Cl)][NMeL]D-Piperidide; lactam N-11) | 0.25 ×10⁻⁶ cm/s | 
2 | CC(C)C[C@H]1C(=O)N[C@@H](COCC(O)C(F)(F)F)C(=O)N(C)[C@@H](Cc2cccc(Cl)c2)C(=O)N(C)[C@@H](Cc2ccccc2)C(=O)N[C@@H](COC(C)(C)C)C(=O)N(C)[C@@H](CC(C)C)C(=O)N[C@@H]([C@@H](C)O)C(=O)N(C)[C@@H](CC(C)C)C(=O)N(C)[C@@H](CC(C)C)C(=O)N[C@H](C(=O)N2CCCCC2)CC(=O)N(C)CCCC(=O)N1C (stereo partly drawn) [Compound C02] ([NMeGABA][NMeL]S(CH2CH(OH)CF3)[NMePhe(3-Cl)][NMeF]S(tBu)[NMeL]T[NMeL][NMeL]D-Piperidide; lactam N-11) |  | 0.19 ×10⁻⁶ cm/s
3 | CC[C@H](C)[C@@H]1NC(=O)[C@H](CC(C)C)N(C)C(=O)CCCN(C)C(=O)C[C@@H](C(=O)N2CCCCC2)NC(=O)[C@H](CC(C)C)N(C)C(=O)[C@H](CC(C)C)N(C)C(=O)[C@H]([C@@H](C)O)NC(=O)[C@H](CC(C)C)N(C)C(=O)[C@H](COCC(O)C(F)(F)F)NC(=O)[C@H](Cc2ccccc2)N(C)C(=O)[C@H](Cc2ccccc2)N(C)C1=O (stereo partly drawn) [Compound C03] ([NMeGABA][NMeL]I[NMeF][NMeF]S(CH2CH(OH)CF3)[NMeL]T[NMeL][NMeL]D-Piperidide; lactam N-11) |  | 0.5 ×10⁻⁶ cm/s
4 | CCCCN1CC(=O)N(C)[C@@H](CC(C)C)C(=O)N[C@H](C(=O)N2CCCCC2)CC(=O)N(C)[C@@H](C)C(=O)N[C@@H](COCC(O)C(F)(F)F)C(=O)N(C)[C@@H](CC(C)C)C(=O)N(C)[C@@H](Cc2ccccc2)C(=O)N[C@@H](CC(C)C)C(=O)N(C)[C@@H](Cc2ccccc2)C(=O)N(C)[C@@H]([C@@H](C)CC)C(=O)N[C@@H]([C@@H](C)O)C1=O (stereo partly drawn) [Compound C04] ([NMeA]S(CH2CH(OH)CF3)[NMeL][NMeF]L[NMeF][NMeI]T[NBuGly][NMeL]D-Piperidide; lactam N-11) |  | 0.29 ×10⁻⁶ cm/s
5 | CC[C@H](C)[C@H]1C(=O)N[C@@H]([C@@H](C)O)C(=O)N(C)CC(=O)N(C)[C@@H](CC(C)C)C(=O)N[C@H](C(=O)N2CCCCC2)CC(=O)N(C)[C@@H](C(C)C)C(=O)N[C@@H](CC(C)C)C(=O)N(C)[C@@H](CC(C)C)C(=O)N(C)[C@@H](Cc2ccccc2)C(=O)N[C@@H](COCC(O)C(F)(F)F)C(=O)N(C)[C@@H](Cc2ccccc2)C(=O)N1C (stereo partly drawn) [Compound C05] ([NMeV]L[NMeL][NMeF]S(CH2CH(OH)CF3)[NMeF][NMeI]T[Sar][NMeL]D-Piperidide; lactam N-11) |  | 0.57 ×10⁻⁶ cm/s
6 | CCCCN1CC(=O)N(C)[C@@H](Cc2ccccc2)C(=O)N(C)[C@@H](CC(C)C)C(=O)N[C@@H](COC(C)(C)C)C(=O)N(C)[C@@H](CC(C)C)C(=O)N[C@H](C(=O)N2CCCCC2)CC(=O)N(C)CC(=O)N(C)[C@@H](Cc2cccc(Cl)c2)C(=O)N[C@@H](COCC(O)C(F)(F)F)C(=O)N(C)[C@@H](CC(C)C)C(=O)N[C@@H]([C@@H](C)O)C1=O (stereo partly drawn) [Compound C06] ([Sar][NMePhe(3-Cl)]S(CH2CH(OH)CF3)[NMeL]T[NBuGly][NMeF][NMeL]S(tBu)[NMeL]D-Piperidide; lactam N-11) |  | 0.48 ×10⁻⁶ cm/s
7 | CCCCN1CC(=O)N(C)[C@@H](Cc2ccccc2)C(=O)N(C)[C@@H](CC(C)C)C(=O)N[C@@H](COCC(O)C(F)(F)F)C(=O)N(C)[C@@H](CC(C)C)C(=O)N[C@H](C(=O)N2CCCCC2)CC(=O)N(C)CC(=O)N(C)[C@@H](Cc2ccccc2)C(=O)N[C@@H]([C@@H](C)CC)C(=O)N(C)[C@@H](CC(C)C)C(=O)N[C@@H]([C@@H](C)O)C1=O (stereo partly drawn) [Compound C07] ([Sar][NMeF]I[NMeL]T[NBuGly][NMeF][NMeL]S(CH2CH(OH)CF3)[NMeL]D-Piperidide; lactam N-11) |  | 0.45 ×10⁻⁶ cm/s
8 | CC[C@H](C)[C@H]1C(=O)N[C@@H]([C@@H](C)O)C(=O)N(C)CC(=O)N(C)[C@@H](CC(C)C)C(=O)N[C@H](C(=O)N2CCCCC2)CC(=O)N(C)[C@@H](C(C)C)C(=O)N[C@@H](COCC(O)C(F)(F)F)C(=O)N(C)[C@@H](CC(C)C)C(=O)N(C)[C@@H](Cc2ccccc2)C(=O)N[C@@H](CC(C)C)C(=O)N(C)[C@@H](Cc2ccccc2)C(=O)N1C (stereo partly drawn) [Compound C08] ([NMeV]S(CH2CH(OH)CF3)[NMeL][NMeF]L[NMeF][NMeI]T[Sar][NMeL]D-Piperidide; lactam N-11) |  | 0.6 ×10⁻⁶ cm/s
9 | CCCCN1CC(=O)N(C)[C@@H](CC(C)C)C(=O)N[C@@H](COCC(O)C(F)(F)F)C(=O)N(C)[C@@H](Cc2ccccc2)C(=O)N(C)[C@@H](C(C)C)C(=O)N[C@H](C(=O)N2CCCCC2)CC(=O)N[C@H](C(C)C)C(=O)N(C)[C@@H](Cc2ccccc2)C(=O)N[C@@H](CC(C)C)C(=O)N(C)[C@@H](CC(C)C)C(=O)N[C@@H]([C@@H](C)O)C1=O (stereo partly drawn) [Compound C09] ([dV][NMeF]L[NMeL]T[NBuGly][NMeL]S(CH2CH(OH)CF3)[NMeF][NMeV]D-Piperidide; lactam N-11) |  | 0.12 ×10⁻⁶ cm/s
10 | CC[C@H]1C(=O)N[C@@H](COC(C)(C)C)C(=O)N(C)[C@@H](Cc2ccccc2)C(=O)N(C)[C@@H](CC(C)C)C(=O)N[C@H](C(=O)N2CCCCC2)CC(=O)N[C@H](CC(C)C)C(=O)N(C)[C@@H](Cc2ccccc2)C(=O)N[C@@H](CC(C)C)C(=O)N(C)[C@@H](CC)C(=O)N[C@@H](COCC(O)C(F)(F)F)C(=O)N(C)CC(=O)N1C (stereo partly drawn) [Compound C10] ([dL][NMeF]L[NMeAbu]S(CH2CH(OH)CF3)[Sar][NMeAbu]S(tBu)[NMeF][NMeL]D-Piperidide; lactam N-11) |  | 0.95 ×10⁻⁶ cm/s
11 | CC(C)C[C@H]1C(=O)N[C@@H](C(C)C)C(=O)N(C)[C@@H](Cc2ccccc2)C(=O)N(C)[C@@H](Cc2ccccc2)C(=O)N[C@@H](COC(C)(C)C)C(=O)N(C)[C@@H](CC(C)C)C(=O)N[C@@H](COCC(O)C(F)(F)F)C(=O)N(C)[C@@H](CC(C)C)C(=O)N(C)[C@@H](CC(C)C)C(=O)N[C@H](C(=O)N2CCCCC2)CC(=O)N(C)CCCC(=O)N1C (stereo partly drawn) [Compound C12] ([NMeGABA][NMeL]V[NMeF][NMeF]S(tBu)[NMeL]S(CH2CH(OH)CF3)[NMeL][NMeL]D-Piperidide; lactam N-11) |  | 0.23 ×10⁻⁶ cm/s
12 | CC[C@H]1C(=O)N(C)[C@@H](Cc2ccccc2)C(=O)N[C@@H](CC(C)C)C(=O)N(C)[C@@H](Cc2ccccc2)C(=O)N(C)[C@@H](C(C)C)C(=O)N[C@@H](COCC(O)C(F)(F)F)C(=O)N(C)CC(=O)N(C)[C@@H](CC(C)C)C(=O)N[C@H](C(=O)N2CCCCC2)CC(=O)N(C)[C@@H](C)C(=O)N[C@@H](CC(C)C)C(=O)N1C (stereo partly drawn) [Compound C14] ([NMeA]L[NMeAbu][NMeF]L[NMeF][NMeV]S(CH2CH(OH)CF3)[Sar][NMeL]D-Piperidide; lactam N-11) |  | 2 ×10⁻⁶ cm/s
13 | CC[C@H](C)[C@H]1C(=O)N[C@@H](C(C)C)C(=O)N(C)CC(=O)N(C)[C@@H](CC(C)C)C(=O)N[C@H](C(=O)N2CCCCC2)CC(=O)N(C)[C@@H](C)C(=O)N[C@@H](COCC(O)C(F)(F)F)C(=O)N(C)[C@@H](CC(C)C)C(=O)N(C)[C@@H](Cc2ccccc2)C(=O)N[C@@H](CC(C)C)C(=O)N(C)[C@@H](Cc2ccccc2)C(=O)N1C (stereo partly drawn) [Compound C15] ([NMeA]S(CH2CH(OH)CF3)[NMeL][NMeF]L[NMeF][NMeI]V[Sar][NMeL]D-Piperidide; lactam N-11) |  | 0.83 ×10⁻⁶ cm/s
14 | CCCCN1CC(=O)N(C)[C@@H](Cc2ccccc2)C(=O)N(C)[C@@H](CC(C)C)C(=O)N[C@@H](COC(C)(C)C)C(=O)N(C)[C@@H](CC(C)C)C(=O)N[C@H](C(=O)N2CCCCC2)CC(=O)N(C)CC(=O)N(C)[C@@H](Cc2ccccc2)C(=O)N[C@@H](C(C)C)C(=O)N(C)[C@@H](CC)C(=O)N[C@@H](COCC(O)C(F)(F)F)C1=O (stereo partly drawn) [Compound C16] ([Sar][NMeF]V[NMeAbu]S(CH2CH(OH)CF3)[NBuGly][NMeF][NMeL]S(tBu)[NMeL]D-Piperidide; lactam N-11) |  | 0.41 ×10⁻⁶ cm/s
15 | CC[C@H](C)[C@@H]1NC(=O)[C@H](CC(C)C)N(C)C(=O)[C@H](COCC(O)C(F)(F)F)NC(=O)[C@H](Cc2ccccc2)N(C)C(=O)CN(C)C(=O)C[C@@H](C(=O)N2CCCCC2)NC(=O)[C@H](CC(C)C)N(C)C(=O)[C@H](COC(C)(C)C)NC(=O)[C@H](CC(C)C)N(C)C(=O)[C@H](Cc2ccccc2)N(C)C(=O)CN(C)C1=O (stereo partly drawn) [Compound C17] ([Sar][NMeF]S(CH2CH(OH)CF3)[NMeL]I[Sar][NMeF][NMeL]S(tBu)[NMeL]D-Piperidide; lactam N-11) |  | 4.1 ×10⁻⁶ cm/s
16 | CC(C)C[C@H]1C(=O)N[C@@H](CCCC(O)C(F)(F)F)C(=O)N(C)[C@@H](Cc2cccc(Cl)c2)C(=O)N(C)[C@@H](Cc2ccccc2)C(=O)N[C@@H](COC(C)(C)C)C(=O)N(C)[C@@H](CC(C)C)C(=O)N[C@@H]([C@@H](C)O)C(=O)N(C)[C@@H](CC(C)C)C(=O)N(C)[C@@H](CC(C)C)C(=O)N[C@H](C(=O)N2CCCCC2)CC(=O)N(C)CCCC(=O)N1C (stereo partly drawn) [Compound D02] ([NMeGABA][NMeL][X12][NMePhe(3-Cl)][NMeF]S(tBu)[NMeL]T[NMeL][NMeL]D-Piperidide; lactam N-11) |  | 0.14 ×10⁻⁶ cm/s
17 | CC[C@H](C)[C@@H]1NC(=O)[C@H](CC(C)C)N(C)C(=O)CCCN(C)C(=O)C[C@@H](C(=O)N2CCCCC2)NC(=O)[C@H](CC(C)C)N(C)C(=O)[C@H](CC(C)C)N(C)C(=O)[C@H]([C@@H](C)O)NC(=O)[C@H](CC(C)C)N(C)C(=O)[C@H](CCCC(O)C(F)(F)F)NC(=O)[C@H](Cc2ccccc2)N(C)C(=O)[C@H](Cc2ccccc2)N(C)C1=O (stereo partly drawn) [Compound D03] ([NMeGABA][NMeL]I[NMeF][NMeF][X12][NMeL]T[NMeL][NMeL]D-Piperidide; lactam N-11) |  | 0.33 ×10⁻⁶ cm/s
18 | CCCCN1CC(=O)N(C)[C@@H](CC(C)C)C(=O)N[C@H](C(=O)N2CCCCC2)CC(=O)N(C)[C@@H](C)C(=O)N[C@@H](CCCC(O)C(F)(F)F)C(=O)N(C)[C@@H](CC(C)C)C(=O)N(C)[C@@H](Cc2ccccc2)C(=O)N[C@@H](CC(C)C)C(=O)N(C)[C@@H](Cc2ccccc2)C(=O)N(C)[C@@H]([C@@H](C)CC)C(=O)N[C@@H]([C@@H](C)O)C1=O (stereo partly drawn) [Compound D04] ([NMeA][X12][NMeL][NMeF]L[NMeF][NMeI]T[NBuGly][NMeL]D-Piperidide; lactam N-11) |  | 0.2 ×10⁻⁶ cm/s
